The results in this text go back to ChEMBL document CHEMBL3862012, “Methylene versus carbonyl bridge in the structure of new tubulin polymerization inhibitors with tricyclic A-rings” (Bioorg Med Chem, 2016).

Experiment [1] in a line: Cytotoxicity against human MDA-MB-435 cells assessed as growth inhibition after 48 hrs by SRB assay. It is filed as functional. To be noted: MDA-MB-435, 48 h. On the technique in general: The SRB assay estimates cell density from bound dye.
Experiment [2] can be described thus: Cytotoxicity against human K562 cells assessed as growth inhibition after 48 hrs by SRB assay. It is filed as functional. Conditions: K562, 48 h.
Experiment [3] in a line: Cytotoxicity against human HCT116 cells assessed as growth inhibition after 48 hrs by SRB assay. The experiment is classed as functional. Conditions: HCT-116, 48 h.
Experiment [4] is filed under the species Ovis aries. The experiment is described as follows: Inhibition of sheep brain tubulin polymerization at 100 uM by DAPI staining-based fluorimetric method relative to control.
Experiment [5] can be described thus: Inhibition of sheep brain tubulin polymerization by DAPI staining-based fluorimetric method. Details: species or system Ovis aries.
A short description of experiment [6]: Cytotoxicity against human OVCAR3 cells assessed as growth inhibition after 48 hrs by SRB assay. It is filed as functional. Conditions: OVCAR-3, 48 h.
A short description of experiment [7]: Cytotoxicity against human NCI-H460 cells assessed as growth inhibition after 48 hrs by SRB assay. It is filed as functional. Conditions: NCI-H460, 48 h.
Experiment [8] in a line: Cytotoxicity against human DU145 cells assessed as growth inhibition after 48 hrs by SRB assay. It is filed as functional. To be noted: DU-145, 48 h.
Experiment [9] can be described thus: Cytotoxicity against human SF295 cells assessed as growth inhibition after 48 hrs by SRB assay. The experiment is classed as functional. To be noted: SF-295, 48 h.
Experiment [10] is described as follows: Cytotoxicity against human A498 cells assessed as growth inhibition after 48 hrs by SRB assay. The experiment is classed as functional. To be noted: A498, 48 h.

The structures appear in SMILES notation.

Take `COc1ccc(/C=C\c2cc(OC)c(OC)c(OC)c2)cc1O` [COMBRETASTATIN A4]: the GI50 is 3 nM in experiment [1], 4 nM in experiment [2] and 2 nM in experiment [3].

On to `COc1ccc(CN2c3ccccc3Oc3ccccc32)c(C(F)(F)F)c1`, for which the inhibition in experiment [4] is 44%.

The compound `COc1cc([C@@H]2c3cc4c(cc3C[C@H]3COC(=O)[C@@H]32)OCO4)cc(OC)c1OC` [DESOXYPODOPHYLLOTOXIN] yielded an inhibition in experiment [4] of 100%. The compound also displayed an IC50 in experiment [5] of 2000 nM.

`COc1ccc(Cn2c3ccccc3c(=O)c3ccccc32)cc1F` yielded an inhibition in experiment [4] of 13%.

In experiment [4], `COc1ccc(C(=O)N2c3ccccc3Sc3ccccc32)c(C(F)(F)F)c1` displayed an inhibition of 80%. In experiment [5], the IC50 worked out at 11900 nM.

For `COc1ccc(C(=O)c2cc(OC)c(OC)c(OC)c2)cc1O` [PHENSTATIN], the 50% growth inhibitory concentration (GI50) in experiment [6] amounted to 7 nM; in [7], 18 nM; in [8] it was 34 nM; in experiment [9] it was 163 nM; in experiment [10], 1190 nM. The compound also gave an inhibition in experiment [4] of 99%. For the same compound, inhibition in experiment [5] was half-maximal at 3400 nM (IC50).

Compound `COc1ccc(CN2c3ccccc3Sc3cccnc32)cc1F` had an inhibition in [4] of 72%. Besides, in [5], the half-inhibitory concentration (IC50) turned out to be 10500 nM.

One may read the GI50 as the concentration giving 50% growth inhibition. The term inhibition denotes the relative decrease from the control value, in per cent. By IC50 is commonly meant the concentration needed to halve the response being measured. Read a low IC50 as greater potency in that assay.
